Laboratory results from patent publication US20260098072A1, “METHODS OF STIMULATING APPETITE AND/OR INCREASING BODY WEIGHT USING NON-NATURALLY OCCURRING MELANOCORTIN RECEPTOR ANTAGONIST ANALOGS” (Endevica Bio, Inc., priority 2022, published 2026).
“Also recorded” adds a separate entry of the source. Positions of bridges follow the written chain, without caps; N, C: chain ends. Non-standard residues stand in square brackets, D forms with d. Residues, ends and D or L forms follow the SMILES beside them. No end group written: not given here. d2Nal = N[C@H](Cc1ccc2ccccc2c1)C(=O)O; Nle = CCCC[C@H](N)C(=O)O

Columns and labels:
[1] = system: urethane-anesthetized rats; assay: Cardiovascular effects (MAP, heart rate, ECG) in urethane-anesthetized rats
Procedure: These studies were performed in urethane-anesthetized rats, since anesthesia is required for six-lead ECG monitoring. […] Initial selection of doses was guided by FDA exploratory IND studies with a recommendation for at least a 100-fold excess of the human dose.

LPS model of cachexia = assay: LPS-induced cachexia assay in rats; assay type: in vivo, rat; conditions: for peripheral (IP) anti-cachexia activity / blood-brain barrier transport: peripheral administration
Procedure: The LPS model uses rats were maintained on a 12 h light/dark schedule with ad libitum access to food and water. Animals were handled daily for a minimum of three consecutive days to decrease non-specific handling stress. On the day of the experiment, individually housed animals received intraperitoneal injections of LPS dissolved in 0.5% low-endotoxin BSA, 0.9% saline or 0.5% BSA in 0.9% saline alone, and were returned to their home cage. The drug or control was administered (ICV, IP, or PO, depending on the type of study) 1-hour after LPS injection.
In the experiments performed in accordance with the present technology, a series of melanocortin receptor antagonist peptides were examined in a bacterial endotoxin inducing cachexia assay. For this assay, a rat is challenged with a single peripheral injection of lipopolysaccharide (LPS). LPS is a heat-stable lipo-polysaccharide, the major component of the outer membrane (capsule) of gram negative bacteria. In non-capsulated strains, it appears as a cell surface protein. LPS produces a strong immune response, including secretion of the proinflammatory cytokines Tumor Necrosis Factor α (TNFα) and interleukin-1 (IL-1). Proinflammatory cytokines are known factors that induce cachexia.
Rats are maintained on a 12-hour light/dark cycle. Animals are handled daily for a minimum of 5 consecutive days to acclimate them to the handling required for the experiment. […] On the day of the experiment, individually housed animals receive intraperitoneal (IP) injections of LPS dissolved in 0.5% low-endotoxin BSA, 0.9% saline or 0.5% BSA in 0.9% saline alone, and returned in their home cage. Melanocortin receptor antagonist peptides were administered (IP or by gavage, depending on the type of study) one hour after the LPS injection. The extent of cachexia is measured by the reduction in food intake, measured every two hours. The cachexia typically lasts only a single day. However, rats lose up to 5% of their body weight during a 12-hour light cycle, making up this loss plus food needed for normal growth during the 12-hour dark cycle. Thus, failure to eat appropriately during a single dark cycle is determinable from the animal's weight and any changes thereof.
A series of melanocortin receptor antagonist peptides were examined in a bacterial toxin inducing cachexia assay. In this assay, a rat was challenged with a single peripheral injection of lipopolysaccharide (LPS), a bacterial toxin that rapidly induces acute cachexia. The extent of cachexia was measured as a reduction in food intake, measured every two hours. The cachexia typically lasts only a single day.

[2] = molecular target: human melanocortin 3 receptor (MC3R) (human) (UniProt P41968); assay: cell-based or functional assay
[3] = molecular target: human melanocortin 4 receptor (MC4R) (human) (UniProt P32245); assay: cell-based or functional assay
Lewis sarcoma rat model = Lewis sarcoma rat model of cancer cachexia; assay type: in vivo
Procedure: This sarcoma is an aggressive form of cancer that produces significant cachexia. Popp et al., Cancer 49 (6): 1212-1220 (1982). In the protocol, “treatment” began 8-days after tumor implantation, with a significant decrease in food intake from baseline. Body composition was determined by NMR prior to tumor implantation, and on the final day of the experiment after tumor resection, by ECHO MRI (NMR). Tumor implantation produces cachexia on or about the sixth day. The non-naturally occurring melanocortin analog or saline was administered after day 8 and continued through day 12.

[4] = molecular target: human melanocortin 4 receptor (MC4R) (human, UniProt P32245 1-332); assay: cell-based or functional assay
[5] = molecular target: human melanocortin 3 receptor (MC3R) (human, UniProt P41968 1-323); assay: cell-based or functional assay
Sequence of human melanocortin 3 receptor (MC3R) (P41968 whole entry): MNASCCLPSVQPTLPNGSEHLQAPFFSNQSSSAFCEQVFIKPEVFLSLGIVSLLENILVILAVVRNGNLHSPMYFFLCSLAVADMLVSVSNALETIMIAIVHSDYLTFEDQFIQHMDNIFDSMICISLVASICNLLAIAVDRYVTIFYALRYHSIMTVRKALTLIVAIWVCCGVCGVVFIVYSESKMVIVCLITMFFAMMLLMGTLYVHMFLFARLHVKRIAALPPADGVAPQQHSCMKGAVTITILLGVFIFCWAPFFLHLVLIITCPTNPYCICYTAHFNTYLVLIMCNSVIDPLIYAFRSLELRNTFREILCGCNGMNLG

Sequence of human melanocortin 4 receptor (MC4R) (P32245 whole entry): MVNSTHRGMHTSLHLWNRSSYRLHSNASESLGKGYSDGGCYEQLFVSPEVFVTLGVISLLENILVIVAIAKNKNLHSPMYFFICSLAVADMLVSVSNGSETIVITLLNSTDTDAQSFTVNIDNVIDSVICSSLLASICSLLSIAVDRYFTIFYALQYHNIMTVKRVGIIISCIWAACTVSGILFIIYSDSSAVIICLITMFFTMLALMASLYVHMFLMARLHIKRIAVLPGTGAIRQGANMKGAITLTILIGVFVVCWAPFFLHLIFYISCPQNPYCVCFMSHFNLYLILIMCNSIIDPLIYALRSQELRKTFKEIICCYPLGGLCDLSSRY
Sequence of human melanocortin 4 receptor (MC4R) (human) (P32245 whole entry): as above
Sequence of human melanocortin 3 receptor (MC3R) (human) (P41968 whole entry): as the sequence (P41968 whole entry) above

## O=C(N[C@H](Cc1ccc(Cl)cc1)C(=O)N1CCC(Cn2cncn2)(C2CCCCC2)CC1)[C@H]1Cc2ccccc2CN1 [THIQ, N-[(3R)-1,2,3,4-tetrahydroisoquinolinium-3-ylcarbonyl]-(1R)-1-(4-chlorobenzyl)-2-[4-cyclohexyl-4-(1H-1,2,4-triazol-1-ylmethyl)piperidin-1-yl]-2-oxoethylamine]
[1]; 300 nmol
  Duration: 19 ± 4 min
  Peak Heart Rate Response (BPM): 81 ± 09 BPM
  Peak MAP Response (Δ mm Hg): 22 ± 11 mm Hg

## CCCC[C@H](NC(=O)[C@H](Cc1ccc(O)cc1)NC(=O)[C@H](CO)NC(C)=O)C(=O)N[C@@H](CCC(=O)O)C(=O)N[C@@H](Cc1c[nH]cn1)C(=O)N[C@H](Cc1ccccc1)C(=O)N[C@@H](CCCNC(=N)N)C(=O)N[C@@H](Cc1c[nH]c2ccccc12)C(=O)NCC(=O)N[C@@H](CCCCN)C(=O)N1CCC[C@H]1C(=O)N[C@H](C(N)=O)C(C)C [MT-I, Ac-Ser-Tyr-Nle-Glu-His-DPhe-Arg-Trp-Gly-Lys-Pro-Val-NH2] (Ac-SY[Nle]EH[dF]RWGKPV-NH2)
[1]; 250 nmol
  Duration: 0 min
  Peak Heart Rate Response (BPM): 0/0 BPM
  Peak MAP Response (Δ mm Hg): 0/0 mm Hg

## CCCC[C@H](NC(C)=O)C(=O)N[C@H]1CC(=O)NCCCC[C@@H](C(=O)O)NC(=O)[C@H](Cc2c[nH]c3ccccc23)NC(=O)[C@H](CCCN=C(N)N)NC(=O)[C@@H](Cc2ccccc2)NC(=O)[C@H](Cc2cnc[nH]2)NC1=O [Bremelanotide (PT-141), Ac-Nle-c[Asp-His-DPhe-Arg-Trp-Lys]-COOH]
[1]; 250 nmol
  Duration: 140 ± 53 min
  Peak Heart Rate Response (BPM): 44 ± 6 BPM
  Peak MAP Response (Δ mm Hg): 32 ± 6 mm Hg
[1]; 900 nmol/kg IV, baseline MAP 80 mmHg
  MAP after lethal dose: 140 mmHg
[1]; IV
  lethal dose: 900 nmol/kg
[1]; IV 600 nmol/kg
  ECG tracing (lead 2): inverted P-wave

## Ac-Nle-c[Asp-Pro-DNal(2′)-Arg-Trp-Lys]-β^3Pro-β^3Val-NH2 [TCMCB06]
LPS model of cachexia; 0.2 mg/kg intraperitoneally
  food intake and body weight, 24-hours: ate less food than the other non-naturally occurring melanocortin analogs, and had no weight gain
LPS model of cachexia
  anti-cachectic activity after ICV administration: molar activity equivalent to TCMCB02
LPS model of cachexia; ICV-administration
  molar activity relative to TCMCB02: 10 fold

## Ac-Nle-c[Asp-Pro-DNal(2′)-Arg-Trp-Lys]-DVal-DPro (Ac-[Nle]DP[d2Nal]RWK[dV][dP]; lactam 2-7) [TCMCB07A]
LPS model of cachexia
  peripheral (IP) anti-cachexia activity / blood-brain barrier transport: equivalent stimulation of feeding

## Ac-Nle-c[Asp-Pro-DNal(2′)-Arg-Trp-Lys]-β^2Val-β^3Pro-NH2 [TCMCB08]
LPS model of cachexia; gavage (intra-gastric)
  oral activity / gastrointestinal transport: no gastrointestinal transport; also recorded: not as much oral activity as TCMCB07
LPS model of cachexia
  peripheral (IP) anti-cachexia activity / blood-brain barrier transport: has peripheral activity; also recorded: good blood-brain barrier transport

## Ac-Nle-c[Asp-Pro-DNal(2′)-Arg-Trp-Lys]-β^3Pro-β^3Pro-NH2 [TCMCB10]
LPS model of cachexia
  anti-cachectic activity after ICV administration: maintaining direct inhibitory effects
  peripheral (IP) anti-cachexia activity / blood-brain barrier transport: showed no peripheral activity

## Ac-Nle-c[Asp-His-DNal(2′)-Arg-Trp-Lys]-DPro-DVal-NH2 (Ac-[Nle]DH[d2Nal]RWK[dP][dV]-NH2; lactam 2-7; SMILES CCCC[C@H](NC(C)=O)C(=O)N[C@H]1CC(=O)NCCCC[C@@H](C(=O)N2CCC[C@@H]2C(=O)N[C@@H](C(N)=O)C(C)C)NC(=O)[C@H](Cc2c[nH]c3ccccc23)NC(=O)[C@H](CCCNC(=N)N)NC(=O)[C@@H](Cc2ccc3ccccc3c2)NC(=O)[C@H](Cc2c[nH]cn2)NC1=O) [TCMCB03]
LPS model of cachexia
  anti-cachectic activity after ICV administration: enhanced anti-cachexia; also recorded: superior anti-cachexia activity following ICV administration
  peripheral (IP) anti-cachexia activity / blood-brain barrier transport: failed to cross the blood brain barrier; also recorded: did not possess as good peripheral (intraperitoneal/IP administration) anti-cachexia activity

## HS024 (TFA) (peptide)
[2]
  IC50 (cAMP by HTRF, antagonist dose-response): 867 nM
  Max Activation %: 102%
[3]
  IC50 (cAMP by HTRF, antagonist dose-response): 153 nM
  Max Activation %: 104%

## Ac-Nle-c[D-Asp-Pro-DNal(2′)-Arg-Trp-DLys]-DPro-DVal-NH2 (Ac-[Nle][dD]P[d2Nal]RW[dK][dP][dV]-NH2; lactam 2-7) [TCMCB04]
LPS model of cachexia
  anti-cachectic activity after ICV administration: superior anti-cachectic activity compared to the parent compound
  peripheral (IP) anti-cachexia activity / blood-brain barrier transport: No difference was observed between the non-naturally occurring melanocortin analog and saline; also recorded: eliminated blood brain barrier transport

## Ac-Nle-c[Asp-Pro-dNal(2′)-Arg-Trp-Lys]-dVal-dPro-NH2 (Ac-[Nle]DP[d2Nal]RWK[dV][dP]-NH2; lactam 2-7) [TCMCB07]
Lewis sarcoma rat model; low and high dose
  gastrocnemius mass: preservation of gastrocnemius mass

## CCCC[C@H](NC(C)=O)C(=O)N[C@H]1CC(=O)NCCCC[C@@H](C(=O)N[C@@H](C(=O)N2CCC[C@@H]2C(=O)N[C@@H](C(=O)O)[C@H](C)O)[C@H](C)O)NC(=O)[C@H](Cc2c[nH]c3ccccc23)NC(=O)[C@H](CCCNC(=N)N)NC(=O)[C@@H](Cc2ccc3ccccc3c2)NC(=O)[C@@H]2CCCN2C1=O [TCMCB01, Ac-Nle-c[Asp-Pro-DNal(2′)-Arg-Trp-Lys]-DThr-DPro-DThr] (Ac-[Nle]DP[d2Nal]RWK[dT][dP][dT]-OH; lactam 2-7)
Lewis sarcoma rat model; 2 nmol once per day
  food intake (reversal of cachexia-anorexia): equivalent to AGRP; also recorded: reversed the cachexia-anorexia of the tumor burden
  potency compared with AGRP and SHU9119: as potent as the natural melanocortin system inhibitor Agouti Related Protein (AGRP), and significantly more potent than SHU9119
Lewis sarcoma rat model; daily body weight
  body weight after tumor implantation: significantly greater than saline controls
Lewis sarcoma rat model; p=0.05
  lean body mass (NMR after tumor excision): increased lean body mass
Lewis sarcoma rat model; related study (not shown)
  anti-cachectic effect relative to AGRP: 20 % greater than AGRP
[1]; 600 nmol
  Duration: 0 min
  Peak Heart Rate Response (BPM): 0/0 BPM
  Peak MAP Response (Δ mm Hg): 0/0 mm Hg
[1]; rat, in vivo
  cardiovascular activity / side effects: little cardiovascular activity
LPS model of cachexia
  anti-cachectic activity after ICV administration: only produced an anti-cachexia effect when given by IVt administration
  peripheral (IP) anti-cachexia activity / blood-brain barrier transport: did not have peripheral activity; also recorded: no blood-brain barrier transport

## Ac-Nle-c[Asp-Pro-DNal(2′)-Arg-Trp-Lys]-β^3Val-β^3Pro-NH2 [TCMCB09]
LPS model of cachexia
  peripheral (IP) anti-cachexia activity / blood-brain barrier transport: inactive peripherally

## Ac-[Nle]DP[d2Nal]RWK[dV][dP]-NH2 (lactam 2-7) [TCMCB07]
[4]
  IC50 (cAMP by HTRF, antagonist dose-response): 26.9 nM
  Max Activation %: 118%
[5]
  IC50 (cAMP by HTRF, antagonist dose-response): 43.4 nM
  Max Activation %: 112%

B1: B1 (peptide)
peptide: Ac-[Nle]DPFFRWK[dV][dP]-NH2
modifications: lactam 2-8
SMILES: CCCC[C@H](NC(C)=O)C(=O)N[C@H]1CC(=O)NCCCC[C@@H](C(=O)N[C@@H](C(=O)N2CCC[C@@H]2C(N)=O)C(C)C)NC(=O)[C@H](Cc2c[nH]c3ccccc23)NC(=O)[C@H](CCCNC(=N)N)NC(=O)[C@H](Cc2ccccc2)NC(=O)[C@H](Cc2ccccc2)NC(=O)[C@@H]2CCCN2C1=O
[4]
  Max Activation %: 12.7%
[5]
  Max Activation %: 6.86%

B2: B2 (peptide)
peptide: Ac-LDPFFRWKVP-NH2
modifications: lactam 2-8
SMILES: CC(=O)N[C@@H](CC(C)C)C(=O)N[C@H]1CC(=O)NCCCC[C@@H](C(=O)N[C@H](C(=O)N2CCC[C@H]2C(N)=O)C(C)C)NC(=O)[C@H](Cc2c[nH]c3ccccc23)NC(=O)[C@H](CCCNC(=N)N)NC(=O)[C@H](Cc2ccccc2)NC(=O)[C@H](Cc2ccccc2)NC(=O)[C@@H]2CCCN2C1=O
[4]
  Max Activation %: 35.5%
[5]
  Max Activation %: 10.3%

## LDPFFRWKVP (lactam 2-8) [B3]
[4]
  Max Activation %: 4.41%
[5]
  Max Activation %: 0.83%

## LPFFRWVP [B4]
[4]
  Max Activation %: 16.1%
[5]
  Max Activation %: 7.81%
